Four compounds from patent US4562275A, “Antitumor platinum complexes” (priority 1984, dated 1985) can be followed below.

Structures are written as SMILES. Several values for one entry are separate records, joined by “and”; a condition that tells them apart may be missing. Equal values may be shown once.

Data set [1] concerns BDF1 mice. Nature of the data set: Nephrotoxicity: effect on blood urea nitrogen (BUN) in BDF1 mice. Conditions: for BUN↑, Mouse: effect relative to cisplatin. As to the method: The other compounds were in such short supply that they were tested for effects on BUN values using the optimum dose (O.D.) from the L1210 test for dose selection.
The toxicity studies were done in male BDF1 mice (25-29 gm) and castrated male Fitch ferrets (1-1.5 kg).
The complexes that were active against L1210 were evaluated for nephrotoxicity by determining their effects on blood urea nitrogen (BUN) levels in mice. Groups of 40-50 mice/experiment were bled from the retro-orbital plexus and individual BUN values determined by a modified urease method using a Centrifichem System 400. The test complex, or saline for controls, was given at several dose levels (5-10 mice/dose) in single ip injections. The highest dose of the complex usually corresponded to its LD50 value or 1.5 times its optimal single dose in the L1210 experiment. At least two lower doses were included to evaluate dose-related effects. The BUN values were measured 4 and 7 days after dosing. BUN values ≥30 mg% were considered indicative of drug-induced nephrotoxicity.

The test system of a further data set is M109 carcinoma. Nature of the data set: Antitumor activity vs ip M109 (Madison 109 lung) carcinoma in mice. The data set is classed as in vivo, mouse. As to conditions: for O.D.: ip M109 (2×; 4×); for Max. % T/C: ip M109 (2×; 4×): q3d × 2 or qd 1-4, ip, dying mice only. Also on record: O.D.: unit not given here. The text has this:
(§1) Results of antitumor testing against the transplantable mouse tumors L1210 leukemia, cisplatin-resistant L1210 leukemia, B16 melanoma, Madison 109 lung carcinoma and colon 26 carcinoma are shown below in Tables 1 and 2.
(§2) The methods used to evaluate the platinum complexes for antitumor activity and toxicity in animals are summarized below. These methods have been published elsewhere in more detail (Rose, et al. Cancer Treat. Rep. 66: 135, 1982; Florczyk, et al, Cancer Treat. Rep. 66: 187, 1982).
(§3) The parent line of L1210 leukemia (L1210) was maintained in DBA/2 mice by ip transplantation of 10^5 cells at weekly intervals. […] B16 malenoma (B16) was maintained by sc transplant in C57BL/6 mice every two weeks. Madison 109 lung carcinoma (M109) and colon 26 carcinoma (C26) were maintained by sc transplant in BALB/c mice every two weeks.
(§4) The level and route of tumor inoculum, host, group size, and drug treatment schedule and route for each tumor type are summarized below in Table 6. Each complex was evaluated initially against L1210 at 4 dose levels per schedule selected on the basis of lethality data provided by the Wadley Institute. In subsequent experiments with the other tumors the complexes were evaluated at a minimum of 3 dose levels selected on the basis of maximum tolerated levels in the L1210 experiments. Cisplatin-treated groups and a saline-treated (or untreated) tumor control group were included in each experiment.
(§5) The L1210 experiments were terminated on Day 30 whereas the B16, C26 and M109 experiments were terminated on Day 60 (some C26 experiments were terminated on Day 75). Mice alive at the termination day were autopsied and considered cured if no tumor was visible. […] A complex was considered active if it produced a % T/C value ≥125.
8 q3d^a × 2 or qd 1-4, ip

Data set [2] concerns BDF1 mice. Nature of the data set: Single-dose ip LD50 in BDF1 mice. The data set is classed as in vivo, mouse. As to conditions: 30 days observation. The procedure:
Single-dose ip LD50 values were determined in BDF1 mice for the indicated complexes.

Another data set has as its system L1210 leukemia. Kind of data set: Antitumor activity vs transplantable L1210 leukemia (ip) in mice. The data set is classed as in vivo, mouse. Conditions: for Max % T/C: dying mice only; for OD (optimum dose): optimum dose from the L1210 test.
Description: The antitumor activities of the complexes provided by the present invention have been determined against L-1210 leukemia in the mouse and, for certain of the complexes, against other mouse tumor systems.
as §1
In Table 1 are shown the maximum % T/C values obtained for each platinum compound versus L1210 leukemia using both single and qd 1→5 dosing.
as §2, §3, §4, §5

The test system of data set [3] is L1210/CDDP (cisplatin resistant line of L1210 leukemia). Kind of data set: Antitumor activity vs cisplatin-resistant L1210 leukemia (L1210/CDDP) in mice. The data set is classed as in vivo, mouse.
Description: Results of antitumor testing against the transplantable mouse tumors L1210 leukemia, cisplatin-resistant L1210 leukemia, B16 melanoma, Madison 109 lung carcinoma and colon 26 carcinoma are shown below in Tables 1 and 2. […]
as §2, §3, §4, §5

For data set [4], the system named is BDF1 mice. Nature of the data set: Deaths (D.14) in the BUN test in BDF1 mice. The data set is classed as in vivo, mouse.
The next data set deals with B16 melanoma. Kind of data set: Antitumor activity vs ip B16 melanoma in mice. The data set is classed as in vivo, mouse. Also on record: O.D.: unit not given here. Conditions: for O.D.: ip B16 (3×; 9×); for Max. % T/C: ip B16 (3×; 9×): q4d × 3 or qd 1-9, ip, dying mice only.
Description: as §2, §3
The level and route of tumor inoculum, host, group size, and drug treatment schedule and route for each tumor type are summarized below in Table 6. Each complex was evaluated initially against L1210 at 4 dose levels per schedule selected on the basis of lethality data provided by the Wadley Institute.
as §5

The nature of data set [5]: Solubility stated in the preparation examples.
The test system of another data set is C26 carcinoma. Nature of the data set: Antitumor activity vs ip C26 (colon 26) carcinoma in mice. The data set is classed as in vivo, mouse. Also on record: O.D.: unit not given here.
Description: as §1, §2, §3, §4, §5
8 q3d^b × 2 or qd 1-4, ip

The subject of a further data set is ferret. Nature of the data set: Emetic effects (and lethality) in the ferret. The data set is classed as in vivo, castrated male Fitch ferrets. As to the method:
Selected complexes were evaluated for emetic effects in ferrets. […] The time to the first emetic episode (retching and expulsion of vomitus) and the number of episodes were recorded. […] Subsequent test doses were selected based on the emetic response and lethality of the initial dose.

Where [6] appears, read: L1210, single dose Day 1, ip, (a), (b) determinations.
Setting [7] is: L1210, single dose Day 1, ip, dose giving the Max % T/C, same order.
[8] abbreviates: L1210, Day 1, in intralipid plus ethanol.
[9] abbreviates: Day 1, in intralipid plus ethanol.

As to `CCC(=O)C(=O)[O-].CCC(=O)C(=O)[O-].N[C@@H]1CCCC[C@H]1N.[Pt+2]` (relative stereo) [Example 5, bis(2-ketobutyrato)trans(-)-1,2-diaminocyclohexane platinum(II)], the “Incidence of BUN > 30 mg %” value with BDF1 mice [1] (17 mg/kg ip) is reported as 0/10; with BDF1 mice [1] (22.5 mg/kg ip), 0/10; in the data set with BDF1 mice [1] (30 mg/kg ip), 1/9. The “BUN↑, Mouse” value in the data set with BDF1 mice [1] was 0. Moreover, the O.D. in the data set on M109 carcinoma stood at 6; in the data set on B16 melanoma, 4. Also, the “Max. % T/C” value with M109 carcinoma worked out at 131%; in the data set on B16 melanoma, 163%. In the data set with BDF1 mice [2], this compound gave an LD50 of 30 mg/kg/ip. Besides, the “O.D. (optimal dose)” value is 2.5 mg/kg/inj in the data set on L1210 leukemia (L1210, QD 1 → 5, ip); 10 mg/kg/inj and 9 mg/kg/inj with L1210 leukemia (setting [7]); 9 mg/kg/inj in data set [3] (Day 1). For the same compound, the “Max % T/C” value in the data set on L1210 leukemia (L1210, QD 1 → 5, ip) is 193%; in the data set with L1210 leukemia (setting [6]), 186% and 200%; in data set [3] (Day 1, dying mice only) it was 144%. Also, the “OD (optimum dose)” value in the data set with L1210 leukemia amounted to 10 mg/kg/ip. Also, the Cures/total in data set [3] (Day 1) is given as 2/6. Also, the “Deaths D.14” value with BDF1 mice [4] (17 mg/kg ip) is listed as 1/10; in the data set on BDF1 mice [4] (22.5 mg/kg ip), 1/10; in the data set with BDF1 mice [4] (30 mg/kg ip), 3/10.
Consider `NCC1(N)CCCCCCC1.[O-]B([O-])O.[Pt+2]` [Example 13, borato 1-aminomethylcyclooctylamine platinum(II)], for which the “Incidence of BUN > 30 mg %” value in the data set with BDF1 mice [1] (16 mg/kg ip) and with BDF1 mice [1] (24 mg/kg ip) was 0/5 in each case. Moreover, the “BUN↑, Mouse” value with BDF1 mice [1] worked out at 0. For the same compound, the Solubility in methanol entry in data set [5] (methanol) is recorded as “soluble”. Moreover, the Solubility in water result in data set [5] (water) is reported as “soluble”. In addition, the results for the O.D. with M109 carcinoma, in the data set on C26 carcinoma (ip C26 (2×; 4×)) and with B16 melanoma were 3, 8 and 2, respectively. Moreover, the “Max. % T/C” value turned out to be 81% with M109 carcinoma; 88% with C26 carcinoma (ip C26 (2×; 4×): q3d × 2 or qd 1-4, ip, dying mice only); 167% in the data set on B16 melanoma. For the same compound, the “Ratio of Max. % T/C Complex/cDDP” value is “.52” in the data set on M109 carcinoma (ip M109, relative to concomitant cisplatin); “.61” with C26 carcinoma (ip C26, relative to concomitant cisplatin); “.90” in the data set on B16 melanoma (ip B16, relative to concomitant cisplatin). Moreover, the “O.D. (optimal dose)” value amounted to 4 mg/kg/inj with L1210 leukemia (L1210, QD 1 → 5, ip); 16 mg/kg/inj with L1210 leukemia (setting [7]); 8 mg/kg/inj in data set [3] (Day 1). The “Max % T/C” value with L1210 leukemia (L1210, QD 1 → 5, ip) is 207%; with L1210 leukemia (setting [6]), 229% and 207%; in data set [3] (Day 1, dying mice only), 256%. In the data set with L1210 leukemia, the “OD (optimum dose)” value stood at 16 mg/kg/ip. The Cures/total in [3] (Day 1) is reported as 2/6. The “Deaths D.14” value in the data set with BDF1 mice [4] (16 mg/kg ip) and with BDF1 mice [4] (24 mg/kg ip) was 0/5 throughout.
Consider `N[C@@H]1CCCC[C@H]1N.[O]=[Mn](=[O])([O-])[O-].[Pt+2]` [Example 8, manganato trans(-)-1,2-diaminocyclohexane platinum(II)], for which the figures for the “Incidence of BUN > 30 mg %” value in the data set on BDF1 mice [1] (17 mg/kg ip), with BDF1 mice [1] (23 mg/kg ip) and in the data set on BDF1 mice [1] (31 mg/kg ip) were 0/9, 0/7 and 0/8, respectively. In addition, the “BUN↑, Mouse” value in the data set with BDF1 mice [1] is recorded as 0. Moreover, in the data set with ferret (16 mg/kg iv), the “Emesis Episodes” value was determined as 15. The “Emesis onset in responding animals” value in the data set on ferret (16 mg/kg iv) was found to be 16 min. For the same compound, the “No. With Emesis/No. tested” value in the data set with ferret (16 mg/kg iv, 6 h observation) is 1/1. The acute lethality with ferret (ferret, 16 mg/kg iv) stood at 44 min. The same compound displayed a Lethal dose in the data set with ferret (ferret, doses marked * = Lethal dose) of 16 mg/kg iv. In the data set on BDF1 mice [2], this compound came in with an LD50 of 31 mg/kg/ip. Also, the “O.D. (optimal dose)” value in the data set with L1210 leukemia (L1210, QD 1 → 5, ip) was 2.5 mg/kg/inj; in the data set on L1210 leukemia (setting [7]) it was 20 mg/kg/inj and 18 mg/kg/inj; in [3] (Day 1), 8 mg/kg/inj. In addition, the “Max % T/C” value is 293% in the data set with L1210 leukemia (L1210, QD 1 → 5, ip); 214% and 186% in the data set on L1210 leukemia (setting [6]); 181% in data set [3] (Day 1, dying mice only). The “OD (optimum dose)” value in the data set on L1210 leukemia was found to be 20 mg/kg/ip. In addition, the “Deaths D.14” value with BDF1 mice [4] (17 mg/kg ip) was 1/10; in the data set with BDF1 mice [4] (23 mg/kg ip) it was 3/10; in the data set on BDF1 mice [4] (31 mg/kg ip), 2/10. In addition, the O.D. with B16 melanoma was 2. In the data set on B16 melanoma, the “Max. % T/C” value is 160%.
Regarding `CCCCB([O-])[O-].N[C@@H]1CCCC[C@H]1N.[Pt+2]` (relative stereo) [Example 7, n-butylboronato trans(-)-1,2-diaminocyclohexane platinum(II)], the “Incidence of BUN > 30 mg %” value in the data set on BDF1 mice [1] (6.4 mg/kg ip), in the data set with BDF1 mice [1] (8.5 mg/kg ip) and in the data set on BDF1 mice [1] (11.3 mg/kg ip) was 0/10 throughout. For the same compound, the “BUN↑, Mouse” value in the data set on BDF1 mice [1] turned out to be 0. In the data set with BDF1 mice [2], the LD50 turned out to be 11.3 mg/kg/ip. Moreover, the “O.D. (optimal dose)” value in the data set with L1210 leukemia (setting [8]) is reported as 6 mg/kg/inj; with L1210 leukemia (L1210, QD 1 → 5, ip), 1 mg/kg/inj; with L1210 leukemia (setting [7]), 3 mg/kg/inj; in data set [3] (setting [9]) it was 8 mg/kg/inj. Besides, the “Max % T/C” value in the data set with L1210 leukemia (setting [8]) was 236% and 217%; in the data set on L1210 leukemia (setting [6]), 179%; in data set [3] (Day 1, in intralipid plus ethanol, dying mice only), 427%. Moreover, in the data set on L1210 leukemia, the “OD (optimum dose)” value amounted to 3.6 mg/kg/ip. Moreover, in data set [3] (setting [9]), the Cures/total was 5/6. Moreover, the “Deaths D.14” value with BDF1 mice [4] (6.4 mg/kg ip), in the data set on BDF1 mice [4] (8.5 mg/kg ip) and with BDF1 mice [4] (11.3 mg/kg ip) was 0/10 in each case. In the data set with B16 melanoma, this compound displayed an O.D. of 1.2. In addition, in the data set with B16 melanoma, the “Max. % T/C” value is reported as 120%.
